Results taken from the supplement of paper PMC10307832.

Columns and labels:
Test in all cases: relative viability (nuclei count vs DMSO), 5 days (fraction); higher = more cells survive
Wnt-C59 + Lapatinib = compound: CC1=NC=CC(=C1)C2=CC=C(C=C2)CC(=O)NC3=CC=C(C=C3)C4=CN=CC=C4 [Wnt-C59] + CS(=O)(=O)CCNCc1ccc(-c2ccc3ncnc(Nc4ccc(OCc5cccc(F)c5)c(Cl)c4)c3c2)o1 [Lapatinib] (partner 2 µM)
Method in brief: (§1)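 Medians of duplicate plates are given as relative viability. That measure is the nuclei count in treated wells divided by the count in vehicle wells. Counts were taken on 4× images of lung cancer cell lines in 1536-well plates, 5 days after pin-tool dosing the day after seeding with one drug alone or a fixed anchor-drug dose plus five library-drug doses (not always all listed) in √10 steps.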

Lapatinib + Crizotinib = compound: CS(=O)(=O)CCNCc1ccc(-c2ccc3ncnc(Nc4ccc(OCc5cccc(F)c5)c(Cl)c4)c3c2)o1 [Lapatinib] + C[C@@H](Oc1cc(-c2cnn(C3CCNCC3)c2)cnc1N)c1c(Cl)ccc(F)c1Cl [Crizotinib] (partner 1 µM)
Method in brief: as §1

Lapatinib + AZD7762 = compound: CS(=O)(=O)CCNCc1ccc(-c2ccc3ncnc(Nc4ccc(OCc5cccc(F)c5)c(Cl)c4)c3c2)o1 [Lapatinib] + NC(=O)Nc1cc(-c2cccc(F)c2)sc1C(=O)N[C@H]1CCCNC1 [AZD7762] (partner 0.2 µM)
Method in brief: as §1

Lapatinib + Bortezomib = compound: CS(=O)(=O)CCNCc1ccc(-c2ccc3ncnc(Nc4ccc(OCc5cccc(F)c5)c(Cl)c4)c3c2)o1 [Lapatinib] + CC(C)C[C@H](NC(=O)[C@H](Cc1ccccc1)NC(=O)c1cnccn1)B(O)O [Bortezomib] (partner 0.002 µM)
Method in brief: as §1

Cell Line | relative viability (Wnt-C59 + Lapatinib; first compound 0.001 µM) | relative viability (Wnt-C59 + Lapatinib; first compound 0.01 µM) | relative viability (Wnt-C59 + Lapatinib; first compound 0.03162 µM) | relative viability (Wnt-C59 + Lapatinib; first compound 0.1 µM) | relative viability (Lapatinib + Crizotinib; first compound 0.02 µM) | relative viability (Lapatinib + Crizotinib; first compound 0.06325 µM) | relative viability (Lapatinib + Crizotinib; first compound 0.2 µM) | relative viability (Lapatinib + Crizotinib; first compound 0.6325 µM) | relative viability (Lapatinib + Crizotinib; first compound 2 µM) | relative viability (Lapatinib + AZD7762; first compound 0.06325 µM) | relative viability (Lapatinib + AZD7762; first compound 0.6325 µM) | relative viability (Lapatinib + AZD7762; first compound 2 µM) | relative viability (Lapatinib + Bortezomib; first compound 0.02 µM) | relative viability (Lapatinib + Bortezomib; first compound 0.06325 µM) | relative viability (Lapatinib + Bortezomib; first compound 0.2 µM) | relative viability (Lapatinib + Bortezomib; first compound 0.6325 µM) | relative viability (Lapatinib + Bortezomib; first compound 2 µM) | relative viability (Lapatinib + AZD7762; first compound 0.2 µM) | relative viability (Lapatinib + AZD7762; first compound 0.02 µM)
NCI-H1703 | 1.16 | 1.28 | 1.3 | 1.12 | 0.696 | 0.873 | 0.774 | 0.879 | 0.63 | 0.119 | 0.121 | 0.113 | 0.316 | 0.313 | 0.317 | 0.24 | 0.32 |  | 
NCI-H1734 | 0.948 | 1.04 | 1.09 | 1.02 |  | 0.481 | 0.737 | 0.669 | 0.663 | 0.42 | 0.507 | 0.541 |  | 0.839 | 1.02 | 0.993 | 0.862 | 0.587 | 
NCI-H1755 | 1.01 | 0.98 | 1.03 | 0.952 | 0.851 | 0.82 | 0.899 | 0.818 | 0.809 | 0.402 | 0.433 | 0.541 | 0.807 | 0.919 | 0.997 | 0.984 | 0.874 | 0.371 | 0.449
NCI-H1792 | 0.866 | 0.982 | 0.991 | 0.913 | 0.92 | 0.987 | 0.985 | 0.946 | 0.918 |  | 0.665 | 0.365 | 0.892 | 0.718 | 0.922 | 0.923 | 1.02 | 0.568 | 
NCI-H1915 | 0.88 | 0.939 | 1.03 | 0.944 |  | 0.868 | 0.887 | 0.846 | 0.86 | 0.71 | 0.705 | 0.592 |  | 0.973 | 1.04 | 0.915 | 0.953 | 0.685 | 
NCI-H1975 | 0.816 | 0.863 | 0.934 | 0.882 | 0.949 | 0.837 | 1.05 | 0.85 | 0.736 | 0.592 | 0.538 | 0.5 | 0.467 | 0.358 | 0.407 | 0.405 | 0.32 | 0.617 | 0.821
NCI-H1993 | 0.734 | 0.832 | 0.852 | 0.825 | 0.854 |  | 0.796 | 0.737 | 0.742 |  | 0.499 | 0.455 | 0.88 |  | 0.871 | 0.889 | 0.627 | 0.86 | 0.615
NCI-H2085 | 0.8 | 0.726 | 0.771 | 0.819 | 0.824 | 0.996 | 0.759 | 0.807 | 0.616 | 0.886 | 0.797 | 0.526 | 0.667 | 0.979 | 0.998 | 0.994 | 1.02 | 0.929 | 0.881
NCI-H2087 | 1.01 | 1.04 | 1.08 | 0.908 | 0.876 | 0.88 | 1.1 | 0.692 | 0.766 | 1.47 | 1.36 | 1.25 | 0.445 | 0.738 | 0.832 | 0.679 | 0.761 | 1.17 | 1.5
NCI-H2126 | 0.78 | 0.731 | 0.792 | 0.772 |  | 0.879 | 1.02 | 1.04 | 0.865 | 0.927 | 0.975 | 0.928 |  | 1.05 | 1.04 | 1.03 | 1.03 | 0.983 | 0.55
NCI-H2347 | 0.961 | 0.861 | 0.976 | 0.854 | 0.7 | 0.654 | 0.722 | 0.649 | 0.671 | 0.705 | 0.81 | 0.612 |  | 1.17 | 0.87 | 0.796 | 1 | 0.637 | 0.495
NCI-H2405 | 1.02 |  | 0.968 | 0.95 | 0.628 | 0.753 | 0.884 | 0.824 | 0.767 | 0.682 | 0.759 | 0.617 | 0.66 | 0.946 | 1.06 | 0.963 | 0.854 |  | 
NCI-H3122 | 0.967 | 1.07 | 0.993 | 1.04 | 0.277 | 0.224 | 0.27 | 0.268 | 0.274 | 0.9 | 1.04 | 0.973 | 0.927 | 1 | 0.965 | 0.972 | 1.02 | 0.999 | 0.959
PC-3 [JPC-3] | 0.465 | 0.459 | 0.447 | 0.496 |  | 0.965 | 1.09 | 0.998 | 0.656 | 0.477 | 0.655 | 0.414 |  | 0.796 | 0.818 | 0.864 | 0.837 |  | 
PC-14 | 0.311 | 0.324 | 0.328 | 0.316 | 0.815 | 0.9 | 0.946 | 0.898 | 0.826 | 0.331 | 0.295 | 0.138 | 0.799 | 0.936 | 0.835 | 0.898 | 0.661 | 0.301 | 0.362
RERF-LC-KJ | 0.892 | 0.836 | 0.925 | 0.797 | 0.803 | 0.802 | 0.86 | 0.876 | 0.726 | 0.936 | 0.877 | 0.707 | 0.911 | 0.948 | 1.02 | 0.983 | 0.766 | 0.717 | 0.391
